Earlier results, collected in patent publication KR20170036668A, “피부 발진의 예방 또는 치료용 약학 조성물” (주식회사 대웅제약, priority 2014, dated 2017).

Tests used:
[1] = tested on: 피부 발진; conditions: prophylactic treatment; Jatoi A et al., Cancer 113:847-853

Proportion of patients with grade 3-4 ERSE (NSCLC and PC clinical trials) [%] | Time to onset of rash after start of treatment (rash above the waist) | Compound | Incidence of erlotinib related skin effect (ERSE) (NSCLC and PC clinical trials) [%] | Improvement of skin rash versus placebo [1] [%]
~10 | 7-10 일 | C#Cc1cccc(Nc2ncnc3cc(OCCOC)c(OCCOC)cc23)c1 [엘로티닙] | 75 | –
– | – | CN(C)[C@@H]1C(O)=C(C(N)=O)C(=O)[C@@]2(O)C(O)=C3C(=O)c4c(O)cccc4[C@@](C)(O)[C@H]3C[C@@H]12 [테트라사이클린] | – | 30
